# In ChEMBL document CHEMBL5344441, “Discovery and Preclinical Pharmacology of NX-2127, an Orally Bioavailable Degrader of Bruton's Tyrosine Kinase with Immunomodulatory Activity for the Treatment of Patients with B Cell Malignancies” (J Med Chem, 2024):
# pIC50: −log10 of the molar value. Activity calls are given as the source filed them. No cut-off for these calls is given here.
# Tests used:
# [1] = biological target: T1, Protein cereblon-BTK (Macaca fascicularis) (UniProt A0A2K5UTB3+A0A7N9IGT8); assay: In vivo protac activity at CRBN/BTK in cynomolgus monkey assessed as remaining BTK protein in B cells at 30 mg/kg,po administration for 1 day by flow cytomtery relative to control; type: functional, organism-based
# Cytochrome P450 1A2 = Cytochrome P450 1A2 (Homo sapiens, UniProt P05177); assay: Inhibition of CYP1A2 (unknown origin); type: ADME
# [2] = biological target: Protein cereblon/Zinc finger protein Aiolos (Macaca fascicularis) (UniProt A0A2K5UTB3+A0A2K5VJM3); assay: In vivo protac activity at CRBN/IKZF3 in cynomolgus monkey assessed as degradation of IKZF3 protein at po administration measured after 24 hrs by flow cytomtery; type: functional, organism-based
# [3] = biological target: T2, Protein cereblon/Tyrosine-protein kinase BTK (Homo sapiens, UniProt Q06187+Q96SW2); assay: PROTAC activity at CRBN/BTK in human TMD8 cells assessed as degradation of BTK protein incubated for 4 hrs by HTRF assay; type: cell-based
# [4] = AUC in mouse at 10 mg/kg,po; type: ADME, organism-based; design: dose 10 mg/kg, route po; conditions: in vivo
# Cytochrome P450 2D6 = Cytochrome P450 2D6 (Homo sapiens, UniProt P10635); assay: Inhibition of CYP2D6 (unknown origin); type: ADME
# Cytochrome P450 2C19 = Cytochrome P450 2C19 (Homo sapiens, UniProt P33261); assay: Inhibition of CYP2C19 (unknown origin); type: ADME
# TMD8 [5] = assay: Antitumor activity against human TMD8 cells expressing wild type BTK xenografted in CB17-SCID mouse assessed as tumor growth inhibition at 10 mg/kg,po administration for 25 days; type: functional; conditions: TMD8, 600 h, time 25 day, read-out: TGI
# [6] = biological target: T3, Protein cereblon/Tyrosine-protein kinase BTK (Mus musculus) (UniProt P35991+Q8C7D2); assay: In vivo protac activity at CRBN/BTK in mouse assessed as remaining BTK protein at 10 mg/kg,po administration measured after 24 hrs by flow cytomtery relative to control; type: functional, organism-based
# [7] = biological target: T3, Protein cereblon/Tyrosine-protein kinase BTK (Mus musculus); assay: In vivo protac activity at CRBN/BTK in BALB/c mouse assessed as residual BTK protein in blood at 0.3 mg/kg,po administration measured after 24 hrs by flow cytomtery relative to control
# [8] = Cmax in cynomolgus monkey at 10 mg/kg,po administration for 14 days; type: ADME, organism-based, Macaca fascicularis; design: dose 10 mg/kg, time 14 day, route po; conditions: in vivo
# [9] = AUClast in cynomolgus monkey at 10 mg/kg,po administration for 14 days; type: ADME, organism-based, Macaca fascicularis; design: time 14 day, dose 10 mg/kg, route po; conditions: in vivo
# [10] = biological target: T2, Protein cereblon/Tyrosine-protein kinase BTK; assay: PROTAC activity at CRBN/BTK in human PBMC cells asessed as degradation of BTK protein at 50 nM incubated for 4 hrs by proteomics assay based LC-MS/MS analysis; type: cell-based
# [11] = Cmax in dog at 10 mg/kg,po; type: ADME, organism-based, Canis lupus familiaris; design: dose 10 mg/kg, route po; conditions: in vivo
# [12] = Plasma protein binding in rat; type: ADME, cell-free; conditions: read-out: PPB
# [13] = AUC in rat at 10 mg/kg,po; type: ADME, organism-based; design: dose 10 mg/kg, route po; conditions: in vivo
# [14] = biological target: T3, Protein cereblon/Tyrosine-protein kinase BTK (Mus musculus); assay: In vivo protac activity at CRBN/BTK in CB17-SCID mouse assessed as degradation of BTK protein in B cells at 10 to 90 mg/kg,po administration for 25 days by flow cytomtery; type: functional, organism-based; conditions: dose 10-90 mg/kg, time 25.0 day
# [15] = biological target: Protein cereblon-BTK (Canis lupus familiaris) (UniProt A0A8I3NIQ5+A0A8I3P7Z3); assay: In vivo protac activity at CRBN/BTK in Beagle dog assessed as remaining BTK protein at 10 mg/kg,po administration measured after 24 hrs by flow cytomtery relative to control; type: functional, organism-based
# [16] = Oral bioavailability in rat at 10 mg/kg; type: ADME, organism-based; conditions: in vivo
# [17] = AUClast in cynomolgus monkey at 10 mg/kg,po administration for 1 day; type: ADME, organism-based, Macaca fascicularis; design: dose 10 mg/kg, time 1 day, route po; conditions: in vivo
# [18] = biological target: Protein cereblon/Tyrosine-protein kinase BTK (Homo sapiens, UniProt Q06187+Q96SW2, C481S); assay: PROTAC activity at CRBN/BTK C481S mutant in human TMD8 cells assessed as degradation of BTK protein incubated for 4 hrs by HTRF assay; type: cell-based
# Cytochrome P450 3A4 = Cytochrome P450 3A4 (Homo sapiens, UniProt P08684); assay: Inhibition of CYP3A4 (unknown origin); type: ADME
# [19] = Plasma protein binding in dog; type: ADME, cell-free, Canis lupus familiaris; conditions: read-out: PPB (converted)
# [20] = Apparent permeability across apical to basolateral side in human Caco-2 cells; type: ADME, cell-based
# [21] = Cmax in cynomolgus monkey at 10 mg/kg,po; type: ADME, organism-based, Macaca fascicularis; design: dose 10 mg/kg, route po; conditions: in vivo
# [22] = Oral bioavailability in dog at 10 mg/kg; type: ADME, organism-based, Canis lupus familiaris; conditions: in vivo
# [23] = AUC in cynomolgus monkey at 10 mg/kg,po; type: ADME, organism-based, Macaca fascicularis; design: dose 10 mg/kg, route po; conditions: in vivo
# [24] = biological target: T3, Protein cereblon/Tyrosine-protein kinase BTK (Mus musculus); assay: In vivo protac activity at CRBN/BTK in BALB/c mouse assessed as residual BTK protein in blood at 3 mg/kg,po administration measured after 24 hrs by flow cytomtery relative to control
# [25] = biological target: Protein cereblon/Zinc finger protein Aiolos (Homo sapiens, UniProt Q96SW2+Q9UKT9); assay: In vivo protac activity at CRBN/IKZF3 in CB17-SCID mouse xenografted with human TMD8 cells assessed as degradation of IKZF3 protein in tumor at 10 to 90 mg/kg,po administration for 25 days by flow cytomtery; type: functional, organism-based; conditions: dose 10-90 mg/kg, time 25.0 day
# TMD8 [26] = assay: Antitumor activity against human TMD8 cells expressing wild type BTK xenografted in CB17-SCID mouse assessed as tumor growth inhibition at 90 mg/kg,po administration for 25 days; type: functional; conditions: TMD8, 600 h, time 25 day, read-out: TGI
# [27] = Observed clearance in mouse at 1 mg/kg,iv; type: ADME, organism-based; conditions: in vivo
# Cereblon/Ikaros = Cereblon/Ikaros (Homo sapiens, UniProt Q96SW2+Q13422); assay: In vivo protac activity at CRBN/IKZF1 in CB17-SCID mouse xenografted with human TMD8 cells assessed as degradation of IKZF1 protein in tumor at 10 to 90 mg/kg,po administration for 25 days by flow cytomtery; type: functional, organism-based; conditions: dose 10-90 mg/kg, time 25.0 day
# [28] = biological target: T3, Protein cereblon/Tyrosine-protein kinase BTK (Mus musculus); assay: In vivo protac activity at CRBN/BTK in BALB/c mouse assessed as residual BTK protein in blood at 30 mg/kg,po administration measured after 24 hrs by flow cytomtery relative to control
# TMD8 [29] = assay: Antitumor activity against human TMD8 cells expressing BTK C481S mutant xenografted in CB17-SCID mouse assessed as tumor growth inhibition at 30 mg/kg,po administration for 25 days; type: functional; conditions: TMD8, 600 h, time 25 day, read-out: TGI
# [30] = biological target: T3, Protein cereblon/Tyrosine-protein kinase BTK (Mus musculus); assay: In vivo protac activity at CRBN/BTK in CD-1 mouse assessed as remaining BTK protein in blood at 30 mg/kg,po administration measured after 24 hrs by flow cytomtery relative to control; type: functional, organism-based
# [31] = biological target: T1, Protein cereblon-BTK (Macaca fascicularis); assay: In vivo protac activity at CRBN/BTK in cynomolgus monkey assessed as degradation of BTK protein at po administration measured after 24 hrs by flow cytomtery; type: functional, organism-based
# [32] = AUC in dog at 10 mg/kg,po; type: ADME, organism-based, Canis lupus familiaris; design: dose 10 mg/kg, route po; conditions: in vivo
# T3 sequence (P35991 whole entry, looked up): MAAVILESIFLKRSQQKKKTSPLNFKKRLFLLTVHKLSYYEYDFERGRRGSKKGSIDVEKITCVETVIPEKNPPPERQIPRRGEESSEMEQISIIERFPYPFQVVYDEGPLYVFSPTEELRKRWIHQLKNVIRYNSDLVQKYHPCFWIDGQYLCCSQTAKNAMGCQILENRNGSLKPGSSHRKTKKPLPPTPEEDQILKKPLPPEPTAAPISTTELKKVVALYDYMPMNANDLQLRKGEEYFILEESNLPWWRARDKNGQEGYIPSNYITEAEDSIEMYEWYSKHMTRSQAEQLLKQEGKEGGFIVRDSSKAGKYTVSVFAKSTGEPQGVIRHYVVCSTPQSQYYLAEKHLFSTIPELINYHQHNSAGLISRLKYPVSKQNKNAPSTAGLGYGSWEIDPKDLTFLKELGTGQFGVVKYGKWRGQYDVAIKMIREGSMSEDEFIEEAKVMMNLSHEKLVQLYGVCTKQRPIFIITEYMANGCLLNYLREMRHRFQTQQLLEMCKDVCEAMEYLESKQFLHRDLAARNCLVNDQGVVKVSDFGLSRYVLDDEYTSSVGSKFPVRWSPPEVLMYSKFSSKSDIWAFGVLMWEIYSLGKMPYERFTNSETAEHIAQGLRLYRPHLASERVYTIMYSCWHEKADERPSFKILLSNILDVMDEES
# T3 sequence (Q8C7D2 whole entry, looked up): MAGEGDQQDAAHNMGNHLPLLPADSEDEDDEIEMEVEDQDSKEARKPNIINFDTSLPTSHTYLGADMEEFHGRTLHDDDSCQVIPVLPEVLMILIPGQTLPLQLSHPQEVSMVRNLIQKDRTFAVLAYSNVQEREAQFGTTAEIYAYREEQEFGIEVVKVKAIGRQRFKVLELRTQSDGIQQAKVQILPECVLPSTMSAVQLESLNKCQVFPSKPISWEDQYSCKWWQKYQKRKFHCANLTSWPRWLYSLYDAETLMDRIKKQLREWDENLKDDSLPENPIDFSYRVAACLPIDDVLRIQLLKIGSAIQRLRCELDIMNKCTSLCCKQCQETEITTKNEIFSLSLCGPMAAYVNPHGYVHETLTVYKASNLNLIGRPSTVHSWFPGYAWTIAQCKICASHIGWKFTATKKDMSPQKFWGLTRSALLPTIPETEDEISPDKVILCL
# T1 sequence (A0A2K5UTB3 1-488): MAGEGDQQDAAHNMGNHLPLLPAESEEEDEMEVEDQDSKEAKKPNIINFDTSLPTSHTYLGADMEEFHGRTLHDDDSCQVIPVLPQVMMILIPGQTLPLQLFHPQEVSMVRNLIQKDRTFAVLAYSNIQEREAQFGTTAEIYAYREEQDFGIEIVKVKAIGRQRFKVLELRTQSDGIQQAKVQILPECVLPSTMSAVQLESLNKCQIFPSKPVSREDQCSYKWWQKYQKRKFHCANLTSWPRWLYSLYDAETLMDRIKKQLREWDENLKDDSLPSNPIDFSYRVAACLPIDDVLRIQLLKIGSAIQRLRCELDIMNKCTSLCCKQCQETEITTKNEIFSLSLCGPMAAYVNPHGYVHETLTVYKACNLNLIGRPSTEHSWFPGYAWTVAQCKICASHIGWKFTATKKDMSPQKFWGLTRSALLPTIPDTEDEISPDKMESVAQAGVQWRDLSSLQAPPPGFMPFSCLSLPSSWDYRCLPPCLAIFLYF
# T1 sequence (A0A7N9IGT8 entry or part of it partner): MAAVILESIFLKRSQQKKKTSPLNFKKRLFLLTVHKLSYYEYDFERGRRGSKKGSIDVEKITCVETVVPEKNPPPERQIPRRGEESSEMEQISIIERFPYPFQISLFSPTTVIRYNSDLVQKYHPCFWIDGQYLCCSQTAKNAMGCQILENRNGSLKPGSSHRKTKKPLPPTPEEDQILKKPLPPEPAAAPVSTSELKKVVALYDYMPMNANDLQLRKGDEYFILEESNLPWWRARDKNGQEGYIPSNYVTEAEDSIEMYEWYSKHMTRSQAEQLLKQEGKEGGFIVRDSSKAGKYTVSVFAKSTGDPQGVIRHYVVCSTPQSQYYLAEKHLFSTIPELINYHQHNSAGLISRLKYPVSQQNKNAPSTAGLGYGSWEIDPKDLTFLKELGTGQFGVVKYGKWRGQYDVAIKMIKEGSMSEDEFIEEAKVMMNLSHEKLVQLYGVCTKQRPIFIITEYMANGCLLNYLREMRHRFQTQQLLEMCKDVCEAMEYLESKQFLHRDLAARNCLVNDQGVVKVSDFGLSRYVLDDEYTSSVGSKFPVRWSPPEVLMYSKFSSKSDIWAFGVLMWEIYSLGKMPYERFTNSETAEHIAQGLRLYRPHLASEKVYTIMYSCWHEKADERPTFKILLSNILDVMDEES
# Chain of Protein cereblon/Zinc finger protein Aiolos (Q96SW2 whole entry, looked up): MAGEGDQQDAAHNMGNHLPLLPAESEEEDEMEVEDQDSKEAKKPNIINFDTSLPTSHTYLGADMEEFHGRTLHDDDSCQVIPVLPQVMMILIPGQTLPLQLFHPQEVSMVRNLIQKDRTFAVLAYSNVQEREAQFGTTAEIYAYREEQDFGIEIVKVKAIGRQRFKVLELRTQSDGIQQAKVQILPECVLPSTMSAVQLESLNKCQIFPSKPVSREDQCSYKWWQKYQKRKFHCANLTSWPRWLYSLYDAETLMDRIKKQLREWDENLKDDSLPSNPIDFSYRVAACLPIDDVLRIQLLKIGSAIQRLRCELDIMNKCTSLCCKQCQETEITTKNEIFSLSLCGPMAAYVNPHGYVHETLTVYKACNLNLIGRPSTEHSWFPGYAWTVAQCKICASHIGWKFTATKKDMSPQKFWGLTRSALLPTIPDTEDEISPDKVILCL
# Chain of Protein cereblon/Zinc finger protein Aiolos (Q9UKT9 whole entry, looked up): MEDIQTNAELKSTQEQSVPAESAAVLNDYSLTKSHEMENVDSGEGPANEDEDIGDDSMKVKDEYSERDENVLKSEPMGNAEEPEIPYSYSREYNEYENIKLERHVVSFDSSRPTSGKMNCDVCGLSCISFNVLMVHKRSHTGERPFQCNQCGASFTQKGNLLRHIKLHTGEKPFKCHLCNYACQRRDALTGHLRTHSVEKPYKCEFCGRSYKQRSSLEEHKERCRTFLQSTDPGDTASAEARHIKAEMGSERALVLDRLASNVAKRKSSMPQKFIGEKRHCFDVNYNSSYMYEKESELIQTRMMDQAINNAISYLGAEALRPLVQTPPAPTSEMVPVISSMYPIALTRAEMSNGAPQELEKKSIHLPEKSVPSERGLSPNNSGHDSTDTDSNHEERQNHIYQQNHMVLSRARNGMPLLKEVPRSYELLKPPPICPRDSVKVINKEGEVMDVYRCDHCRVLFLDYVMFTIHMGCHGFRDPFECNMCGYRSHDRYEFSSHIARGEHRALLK
# Chain of Protein cereblon/Zinc finger protein Aiolos (Macaca fascicularis) (A0A2K5UTB3 1-488): as the sequence (A0A2K5UTB3 1-488) above
# Chain of Protein cereblon/Zinc finger protein Aiolos (Macaca fascicularis) (A0A2K5VJM3 entry or part of it partner): as the sequence (Q9UKT9 whole entry, looked up) above, with A8V, A20T, A23P, V71I, S74P, S352P, S409P, I433V, V439I counted along it
# Chain of Cytochrome P450 3A4 (P08684 whole entry): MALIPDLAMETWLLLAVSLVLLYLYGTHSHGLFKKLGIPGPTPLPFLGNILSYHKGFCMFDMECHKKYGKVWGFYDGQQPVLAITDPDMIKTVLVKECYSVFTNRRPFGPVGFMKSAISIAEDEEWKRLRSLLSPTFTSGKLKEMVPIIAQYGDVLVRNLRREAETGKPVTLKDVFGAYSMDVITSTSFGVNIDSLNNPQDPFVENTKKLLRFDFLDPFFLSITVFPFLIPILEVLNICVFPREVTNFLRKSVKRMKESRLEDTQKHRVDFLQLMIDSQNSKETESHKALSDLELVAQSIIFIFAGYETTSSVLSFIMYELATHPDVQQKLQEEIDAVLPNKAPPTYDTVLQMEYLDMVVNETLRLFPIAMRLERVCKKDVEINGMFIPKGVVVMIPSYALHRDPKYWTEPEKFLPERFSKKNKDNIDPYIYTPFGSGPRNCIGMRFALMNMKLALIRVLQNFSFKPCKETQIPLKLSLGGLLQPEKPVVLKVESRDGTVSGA
compound,measurement,setting,value
NC(=O)c1ncc(N2CCCCC2)nc1Nc1ccc(C2CCN(C[C@H]3CCN(c4ccc5c(c4)C(=O)N(C4CCC(=O)NC4=O)C5=O)C3)CC2)cc1 (some centres not stated) [ZELEBRUDOMIDE],Activity,[1],9%
same,pIC50,Cytochrome P450 1A2,< 4.52
same,Activity,[2],Dose-Dependent Effect
same,DC50,[3],0.0045 µM
same,AUC,[4],16 µM·h
same,pIC50,Cytochrome P450 2D6,< 4.52
same,pIC50,Cytochrome P450 2C19,< 4.52
same,inhibition in vivo at 10 mg/kg,TMD8 [5],35%
same,Activity,[6],21%
same,residual activity,[7],81%
same,Cmax,[8],25.4 ng/mL
same,AUC(0-t) at 336 h,[9],366 ng·h/mL
same,Activity,[10],Active
same,Cmax,[11],31 nM
same,fraction unbound,[12],< 0.015
same,AUC,[13],0.89 µM·h
same,Activity,[14],Active
same,Activity,[15],17%
same,bioavailability,[16],7.1%
same,AUC(0-t) at 24 h,[17],267 ng·h/mL
same,DC50,[18],0.031 µM
same,pIC50,Cytochrome P450 3A4,< 4.52
same,fraction unbound,[19],0.025
same,Papp A→B,[20],< 0.02 ×10⁻⁶ cm/s
same,Cmax,[21],11 nM
same,bioavailability,[22],1%
same,AUC,[23],0.09 µM·h
same,residual activity,[24],36%
same,Activity,[25],Active
same,inhibition in vivo at 90 mg/kg,TMD8 [26],99%
same,clearance,[27],5.2 mL/min/kg
same,Activity,Cereblon/Ikaros,Active
same,residual activity,[28],12%
same,inhibition in vivo at 30 mg/kg,TMD8 [29],43%
same,Activity,[30],11%
same,Activity,[31],Dose-Dependent Effect
same,AUC,[32],0.13 µM·h
